# Results taken from ChEMBL document CHEMBL5223068, “Novel thiobarbiturates as potent urease inhibitors with potential antibacterial activity: Design, synthesis, radiolabeling and biodistribution study” (Bioorg Med Chem, 2020).
# Experiments:
# [1] = tested on: Escherichia coli; assay: Antibacterial activity against Escherichia coli incubated for 24 to 48 hrs; format: functional; details: time 24-48 hrs
# [2] = tested on: Proteus vulgaris; assay: Antibacterial activity against Proteus vulgaris ATCC 13315 incubated for 18 to 24 hrs by broth microdilution assay; format: functional; details: time 18-24 hrs
# [3] = tested on: Klebsiella pneumoniae; assay: Antibacterial activity against Klebsiella pneumoniae ATCC 700603 incubated for 18 to 24 hrs by broth microdilution assay; format: functional; details: time 18-24 hrs
# [4] = tested on: Klebsiella pneumoniae; assay: Antibacterial activity against clinical isolate Klebsiella pneumoniae incubated for 18 to 24 hrs by broth microdilution assay; format: functional; details: time 18-24 hrs
# [5] = Inhibition of urease (unknown origin) incubated for 30 mins by microplate reader based analysis
# [6] = Inhibition of urease (unknown origin) assessed as reduction on ammonia production incubated for 15 mins by indophenol reagent based microplate reader assay
# [7] = tested on: Proteus mirabilis; assay: Antibacterial activity against clinical isolate Proteus mirabilis incubated for 18 to 24 hrs by broth microdilution assay; format: functional; details: time 18-24 hrs
# [8] = Biodistribution in Swiss albino muscle infected mouse assessed as ratio of infected muscle to normal muscle measured at all time intervals; format: ADME, organism-based, Muscle tissue; details: in vivo
# [9] = Drug uptake in Swiss albino muscle infected mouse kidney measured upto 180 mins; format: ADME, tissue-based; details: in vivo, 3 h
# [10] = Biodistribution in Swiss albino muscle infected mouse assessed as ratio of infected muscle to normal muscle measured after 30 mins post injection; format: ADME, organism-based, Muscle tissue; details: in vivo, 0.5 h
Structure (SMILES),MIC [3] [µg/mL],IC50 [5] [µM],further results
O=C1C(C(=O)C(F)(F)F)C(=O)N(c2ccc(-c3ncc(-c4ccccc4)[nH]3)cc2)C(=S)N1c1ccc(Cl)cc1 (stereo unspecified),–,–,MIC [1]: ≤ 6.25 µg/mL
NC(=O)NNC(=O)CC1C(=O)NC(=S)NC1=O,31.2,27.1,MIC [2]: 16 µg/mL; MIC [4]: 62.5 µg/mL
O=C(CC1C(=O)NC(=S)NC1=O)Nc1ccc(F)cc1,–,44.3,–
CCN1C(=O)C(C(c2ccccc2)C2C(=O)N(CC)C(=S)N(CC)C2=O)C(=O)N(CC)C1=S,–,–,IC50 [6]: 7.45 µM
Cc1ccc(NC(=O)CC2C(=O)NC(=S)NC2=O)c(C)c1,–,75.4,–
Cc1ccccc1NC(=O)CC1C(=O)NC(=S)NC1=O,–,52.1,–
CC(C)CNC(=O)CC1C(=O)NC(=S)NC1=O,–,16.9,–
CCCNC(=O)CC1C(=O)NC(=S)NC1=O,–,11,–
O=C(CC1C(=O)NC(=S)NC1=O)N/N=C/c1ccccc1,–,54.4,–
Cc1ccc(/C=N/NC(=O)CC2C(=O)NC(=S)NC2=O)cc1,–,67.7,–
CCOC(=O)/C(=C\N(C)C)C1C(=O)NC(=S)NC1=O,31.2,13.6,MIC [4]: 62.5 µg/mL; MIC [7]: 15 µg/mL
O=C(CC1C(=O)NC(=S)NC1=O)NCCNC(=O)CC1C(=O)NC(=S)NC1=O,–,29.8,MIC [4]: 62.5 µg/mL
O=C1NC(=S)NC(=O)C1CC(=O)N1CCOCC1,62.5,8.21,MIC [2]: 62.5 µg/mL; Ratio [8]: > 1; Drug uptake [9]: Active; MIC [4]: 62.5 µg/mL; Ratio [10]: 3.72; MIC [7]: 62.5 µg/mL
Cc1cccc(NC(=O)CC2C(=O)NC(=S)NC2=O)c1,–,76.5,–
O=C(CC1C(=O)NC(=S)NC1=O)OCc1ccccc1,125,74.7,–
CCOC(=O)CC1C(=O)NC(=S)NC1=O,62.5,10.1,MIC [2]: 31.2 µg/mL; MIC [4]: 31.2 µg/mL
O=C(CC1C(=O)NC(=S)NC1=O)N/N=C/c1ccccc1O,–,92.9,–
COC(=O)c1ccc(NC(=O)CC2C(=O)NC(=S)NC2=O)cc1,–,22.9,–
Cc1cccc(NC(=O)CC2C(=O)NC(=S)NC2=O)c1C,–,71,–
O=C(CC1C(=O)NC(=S)NC1=O)Nc1ccccc1,–,20.8,–
NNC(=O)CC1C(=O)NC(=S)NC1=O,125,60.3,–
CC1=C(C(=O)O)N2C(=O)[C@@H](NC(=O)[C@H](N)c3ccccc3)[C@H]2SC1 [CEPHALEXIN ANHYDROUS],125,–,MIC [2]: 125 µg/mL; MIC [4]: > 250 µg/mL; MIC [7]: 125 µg/mL
NC(N)=S [THIOUREA],–,20,IC50 [6]: ≤ 21.1 µM
